Measurements as given in the OligoGym collection.
After the bases stand the sugars from the 5' end (letter, count) and the backbone: PS all phosphorothioate, else s phosphorothioate and o phosphodiester by linkage. Methylation of C is not given here. e = 2'-O-(2-methoxyethyl) (MOE); k = constrained ethyl (cEt); d = 2'-deoxy (DNA); m = 2'-O-methyl

Molecular target: HSD17B13
Conditions: ASO, HepaRG

Sequence | target mRNA inhibition (1 µM) | other results
GCTAGTGCCAAACCAA (sugars k3 d10 k3, PS) | 70% | target mRNA inhibition (0.02 µM): 0%; target mRNA inhibition (0.078 µM): 8%; target mRNA inhibition (0.313 µM): 39%; target mRNA inhibition (1.25 µM): 65%; target mRNA inhibition (5 µM): 87%
TTCCGTCTCACAATCT (sugars k3 d10 k3, PS) | 79% | target mRNA inhibition (0.02 µM): 10%; target mRNA inhibition (0.078 µM): 13%; target mRNA inhibition (0.313 µM): 49%; target mRNA inhibition (1.25 µM): 83%; target mRNA inhibition (5 µM): 80%
CTTGACAATGGTTGAT (sugars k3 d10 k3, PS) | 54% | –
TGAAGTTAGTATAGTT (sugars k3 d9 k3 e1, PS) | 70% | –
TTCACCAACGACTCCA (sugars k3 d10 k3, PS) | 62% | –
GCTGTACAGTAGGCAG (sugars k3 d10 k3, PS) | 66% | –
TGCCAGGGAATGCTCA (sugars k3 d10 k3, PS) | 23% | –
CCAATATAATCCAAAG (sugars k3 d10 k3, PS) | 28% | –
GAAAGATGGAATGAGC (sugars k3 d10 k3, PS) | 54% | –
CTACCTCCAAATTCCC (sugars k3 d10 k3, PS) | 27% | –
GCTAGTGCCAAACCAA (sugars kkdddddddddkekek, PS) | 62% | –
CAGACTAAGGGACCAG (sugars k3 d10 k3, PS) | 75% | target mRNA inhibition (0.02 µM): 23%; target mRNA inhibition (0.078 µM): 24%; target mRNA inhibition (0.313 µM): 63%; target mRNA inhibition (1.25 µM): 76%; target mRNA inhibition (5 µM): 89%
CCAAAAATCAGCCACT (sugars k3 d10 k3, PS) | 0% | –
ACTAATATTGAGGCAC (sugars k3 d1 m1 d8 k3, PS) | 42% | –
TCTATTAGTTGGCCTG (sugars k3 d10 k3, PS) | 26% | –
CAGAAGTATGTGAACT (sugars k3 d10 k3, PS) | 22% | –
TAACATTCGGCTAGGC (sugars k3 d10 k3, PS) | 52% | –
GGATAGAGCACATGGC (sugars k3 d10 k3, PS) | 33% | –
GAAGUTAGTATAGTTA (sugars k3 d1 m1 d8 k3, PS) | 43% | –
GCATAAGAGATGAGTA (sugars k3 d10 k3, PS) | 33% | –
GATATTATGTTCTTGG (sugars k3 d10 k3, PS) | 59% | –
TAGTGTAAGCTGAGAG (sugars kkdddddddddkekek, PS) | 68% | target mRNA inhibition (0.02 µM): 24%; target mRNA inhibition (0.078 µM): 25%; target mRNA inhibition (0.313 µM): 37%; target mRNA inhibition (1.25 µM): 51%; target mRNA inhibition (5 µM): 81%
ACAATCTCCCCAGCCA (sugars k3 d10 k3, PS) | 67% | –

Sequence | target mRNA inhibition (1 µM) | other results
TAAGAGGCATGAAAGG (sugars k3 d1 m1 d8 k3, PS) | 50% | –
TTGCAGAAATTCACCT (sugars k3 d1 m1 d8 k3, PS) | 29% | –
TGAGGTTTTGATACCA (sugars k3 d10 k3, PS) | 63% | –
GAGAAGATCGGCTGGA (sugars k3 d10 k3, PS) | 6% | –
GTTTCTTATGTAATAG (sugars kkkddddkddddkkke, PS) | 44% | –
GCATTGTAATCTTGAG (sugars k3 d10 k3, PS) | 35% | –
GGTCCACTTTTGGTGG (sugars k3 d10 k3, PS) | 13% | –
ATGTGAAGAGCTGGTA (sugars kkdddddddddkekek, PS) | 54% | –
GCAGAGACATGAGGTT (sugars k3 d10 k3, PS) | 55% | –
TATTCTGTGGCATGGC (sugars k3 d10 k3, PS) | 71% | –
TTGGTAAGTATTCCAT (sugars k3 d10 k3, PS) | 20% | –
GTACATGCCAAGCTTT (sugars k3 d10 k3, PS) | 61% | –
TTTTATAGACTGGGTA (sugars k3 d10 k3, PS) | 53% | –
ACAGTCTTAAACCTTC (sugars k3 d10 k3, PS) | 76% | target mRNA inhibition (0.02 µM): 5%; target mRNA inhibition (0.078 µM): 16%; target mRNA inhibition (0.313 µM): 52%; target mRNA inhibition (1.25 µM): 75%; target mRNA inhibition (5 µM): 80%
ATTTATTTGCTGGTCC (sugars k3 d10 k3, PS) | 47% | –
ACTTCAGAGTTATACA (sugars k3 d10 k3, PS) | 35% | –
ACAATCTAGCAACCTC (sugars k3 d10 k3, PS) | 44% | –
TGTCTAAACATCTCTG (sugars k3 d10 k3, PS) | 58% | –
ATCAGACTTCTTACGA (sugars k3 d10 k3, PS) | 45% | –
AATATGGGATGAGGTA (sugars k3 d9 k3 e1, PS) | 47% | –
CCAGAAAGTTCATTCG (sugars k3 d10 k3, PS) | 81% | target mRNA inhibition (0.02 µM): 38%; target mRNA inhibition (0.078 µM): 51%; target mRNA inhibition (0.313 µM): 64%; target mRNA inhibition (1.25 µM): 79%; target mRNA inhibition (5 µM): 91%
GTAAATTGAATAGCCA (sugars k3 d10 k3, PS) | 55% | –
CTTACGACAGGTCATC (sugars k3 d10 k3, PS) | 39% | –

Sequence | target mRNA inhibition (1 µM) | other results
ACAGATTGGAATGCTA (sugars k3 d10 k3, PS) | 50% | –
TCCATGCAAAAGCATT (sugars k3 d10 k3, PS) | 62% | –
ATGAAGTTAGTATAGT (sugars kkdddddddddkekek, PS) | 34% | –
ATTTTACTGGGATACT (sugars k3 d10 k3, PS) | 49% | –
AAGCATTGTTAGCTAA (sugars k3 d10 k3, PS) | 11% | –
CACTGCCAGATTGCAC (sugars k3 d10 k3, PS) | 38% | –
CTATCAACCTGCACAC (sugars k3 d10 k3, PS) | 39% | –
AGGCACTAAAGGTTTC (sugars k3 d10 k3, PS) | 61% | –
GAGTTATTGTAGGGAT (sugars k3 d10 k3, PS) | 69% | –
ATTCGAAACTATTCAT (sugars k3 d10 k3, PS) | 24% | –
AGGCTGTAAGAGTCAG (sugars k3 d10 k3, PS) | 74% | –
TTACATATCAATGCCT (sugars k3 d10 k3, PS) | 12% | –
CCTATATACATCCAAG (sugars k3 d10 k3, PS) | 53% | –
TGTCCACCTTTAAATG (sugars kkdddddddddkekek, PS) | 27% | –
TGTGATTGAGTTCTCC (sugars k3 d10 k3, PS) | 62% | target mRNA inhibition (0.02 µM): 1%; target mRNA inhibition (0.078 µM): 14%; target mRNA inhibition (0.313 µM): 20%; target mRNA inhibition (1.25 µM): 42%; target mRNA inhibition (5 µM): 70%
GTCGGTCACCTTTCAT (sugars k3 d1 m1 d8 k3, PS) | 66% | –
CAATTTATTTGCTGGT (sugars k3 d10 k3, PS) | 31% | –
GCCTTTTAACTACCCT (sugars k3 d10 k3, PS) | 0% | –
TGTCTAAACATCTCTG (sugars kkdddddddddkekek, PS) | 59% | –
GTATGTTTATGTAAGC (sugars kkdddddddddkekek, PS) | 72% | target mRNA inhibition (0.02 µM): 11%; target mRNA inhibition (0.078 µM): 27%; target mRNA inhibition (0.313 µM): 53%; target mRNA inhibition (1.25 µM): 63%; target mRNA inhibition (5 µM): 68%
AATCAATCTGTCTGAA (sugars k3 d10 k3, PS) | 34% | –
GATGAGAGTCTTTCTT (sugars k3 d10 k3, PS) | 26% | –
TCTAAACATCTCTGGG (sugars kkdddddddddkekek, PS) | 21% | –

Sequence | target mRNA inhibition (1 µM) | other results
TTTTTGAACCGTATTC (sugars k3 d10 k3, PS) | 56% | –
TAATTTTCAGATCCCG (sugars k3 d10 k3, PS) | 75% | target mRNA inhibition (0.02 µM): 0%; target mRNA inhibition (0.078 µM): 9%; target mRNA inhibition (0.313 µM): 41%; target mRNA inhibition (1.25 µM): 62%; target mRNA inhibition (5 µM): 89%
TATCAGAAACTTATAC (sugars k3 d10 k3, PS) | 0% | –
AATAGCAAGCCAACAG (sugars k3 d10 k3, PS) | 9% | –
AATGCTACTTGAACAG (sugars kkdddddddddkekek, PS) | 39% | –
CAGATTATTATGTGAT (sugars k3 d9 k3 e1, PS) | 38% | –
AGATGGTAAGGAGTAG (sugars k3 d10 k3, PS) | 26% | –
AGTAGTGTAAGCTGAG (sugars k3 d10 k3, PS) | 88% | target mRNA inhibition (0.02 µM): 0%; target mRNA inhibition (0.078 µM): 4%; target mRNA inhibition (0.313 µM): 50%; target mRNA inhibition (1.25 µM): 78%; target mRNA inhibition (5 µM): 92%
CAAGAGGATAGTCCAT (sugars k3 d9 k3 e1, PS) | 64% | –
TTATCATACCACATAC (sugars k3 d10 k3, PS) | 19% | –
GTTTTTTGAACCGTAT (sugars k3 d10 k3, PS) | 71% | target mRNA inhibition (0.02 µM): 0%; target mRNA inhibition (0.078 µM): 0%; target mRNA inhibition (0.313 µM): 9%; target mRNA inhibition (1.25 µM): 56%; target mRNA inhibition (5 µM): 74%
ATCTCTGGGACCAAGG (sugars k3 d10 k3, PS) | 72% | target mRNA inhibition (0.02 µM): 0%; target mRNA inhibition (0.078 µM): 0%; target mRNA inhibition (0.313 µM): 57%; target mRNA inhibition (1.25 µM): 78%; target mRNA inhibition (5 µM): 93%
ATGCTACTTGAACAGT (sugars kkdddddddddkekek, PS) | 54% | –
CCATTTACATATGGTG (sugars k3 d10 k3, PS) | 28% | –
AAAGTTCATTCGAATT (sugars k3 d10 k3, PS) | 63% | –
CAAACTGCTACTGTGT (sugars k3 d10 k3, PS) | 57% | –
CACTGGATGGATTTCT (sugars k3 d10 k3, PS) | 72% | –
TTTAGTATTTGGGTGT (sugars k3 d10 k3, PS) | 21% | –
GATCAAATGTATGTGC (sugars k3 d10 k3, PS) | 25% | –
CTTTGAGACTCTTGTT (sugars k3 d9 k3 e1, PS) | 57% | –
